Consider three compounds from patent US9474790B2, “Stable, protracted GLP-1/glucagon receptor co-agonists for medical use” (Novo Nordisk A/S, priority 2013, dated 2016).

Each structure is given as a SMILES string. Numbered stars: 1 amine (or outer) side, 2 acyl side, 3 side chain; on linkers, the order of the positions; unused ones are H or OH. Square brackets hold non-standard residues; d marks the D form. Side chains are listed from the residue outwards. Peptide text beside a SMILES is read from it. * marks the point of attachment. C18 diacid = O=C(O)CCCCCCCCCCCCCCCCC(=O)*; γGlu = O=C(O)[C@H](CCC(=O)[*:2])N[*:1]; AEEA = NCCOCCOCC(=O)O; Ac3c = NC1(C(=O)O)CC1; Aib = CC(C)(N)C(=O)O

One series has as its target T1, human GLP-1 receptor (Homo sapiens, UniProt P43220).
T1 construct: expressed in transfected cells; host or cells: BHK cells (parent BHKTS13), clone FCW467-12A/KZ10-1, with CRE luciferase
The experiment in a line: GLP-1 receptor potency, CRE luciferase reporter gene assay in BHK cells. It is filed as cell-based. To be noted: BHK cells expressing human GLP-1 receptor, read-out: EC50 GLP-1R. Here is the method:
The purpose of this example was to test the potency, of the glucagon derivatives of the invention, in vitro. The in vitro potency is the measure of human GLP-1 receptor or glucagon receptor activation, respectively, in a whole cell assay.
In vitro potency was determined by measuring the response of human GLP-1 or glucagon receptor, respectively, in a reporter gene assay. The assay was performed in a stably transfected BHK cell line that expresses either the human GLP-1 receptor or the human glucagon receptor and contains the DNA for the cAMP response element (CRE) coupled to a promoter and the gene for firefly luciferase (CRE luciferase). […] When assay incubation was completed, the luciferase substrate (luciferin) was added and the enzyme converted luciferin to oxyluciferin and produces bioluminescence. The luminescence was measured as the readout for the assay.
The cells used in this assay (clone FCW467-12A/KZ10-1) were BHK cells with BHKTS13 as a parent cell line. The cells were derived from a clone (FCW467-12A) that expresses the human GLP-1 receptor and were established by further transfection with
CRE luciferase to obtain the current clone.
The cells were cultured at 5% CO2 in DMEM medium with 10% FBS, 1×GlutaMAX, 1 mg/ml G418, 240 nM MTX (methotrexate) and 1% pen/strep (penicillin/streptomycin). They were aliquoted and stored in liquid nitrogen. Before each assay, an aliquot was taken up and washed three times in PBS before being suspended at the desired concentration in assay medium. For 96-well plates the suspension was made to give a final concentration of 5×10EE3 cells/well.
The following chemicals were used in the assay: Pluronic F-68 (10%) (Gibco 2404), ovalbumin (Sigma A5503), DMEM w/o phenol red (Gibco 11880-028), 1 M Hepes (Gibco 15630), Glutamax 100× (Gibco 35050) and steadylite plus (PerkinElmer 6016757).
Assay Medium consisted of DMEM w/o phenol red, 10 mM Hepes, lx GlutaMAX, 2% Ovalbumin and 0.2% Pluronic F-68.
Cell stocks were thawed in a 37° C. water bath. Cells were washed three times in PBS. The cells were counted and adjusted to 5×10EE3 cells/50 μl (1×10EE5 cells/ml) in Assay Medium. A 50 μl aliquot of cells was transferred to each well in the assay plate.
Stocks of the test compounds and reference compounds were diluted to a concentration of […] in Assay Medium. Compounds were diluted 10-fold to give the following concentrations: 2×10EE-6 M, 2×10EE-7 M, 2×10EE-8 M; 2×10EE-9 M, 2×10EE-10 M, 2×10EE-11 M, 2×10EE-12 M and 2×10EE-13 M. For each compound a blank assay medium control was also included.
A 50 μl aliquot of compound or blank was transferred from the dilution plate to the assay plate. Compounds were tested at the following final concentrations: 1×10EE-6 M, 1×10EE-7 M, 1×10EE-8 M; 1×10EE-9 M, 1×10EE-10 M, 1×10EE-11 M and 1×10EE-12 M and 1×10EE-13 M.
The assay plate was incubated for 3 h in a 5% CO2 incubator at 37° C. The assay plate was removed from the incubator and allowed to stand at room temperature for 15 min. A 100 μl aliquot of steadylite plus reagent was added to each well of the assay plate (reagent is light sensitive). Each assay plate was covered with aluminum foil to protect it from light and shaken for 30 min at room temperature. Each assay plate was read in a Perkin Elmer TopCount NXT instrument.
The data from the TopCount instrument was transferred to GraphPad Prism software. The software performed a non-linear regression (log(agonist) vs response-Variable slope (four parameter)). EC50 values were calculated by the software and reported in pM.
(In general: Reporter assays use an easily measured gene product as a stand-in for the process of interest.)

Series [1] in a line: Thioflavin T (ThT) fibrillation assay for physical stability. The settings on record: 250 μM in 10 mM HEPES buffer, pH 7.5, 37° C., shaking 960 rpm. It is filed as physicochemical. The source says:
The purpose of this assay was to assess the physical stability of the glucagon derivatives of the invention in aqueous solutions.
Low physical stability of a peptide may lead to amyloid fibril formation, which is observed as well-ordered, thread-like macromolecular structures in the sample, which eventually may lead to gel formation. This has traditionally been measured by visual inspection of the sample. However, that kind of measurement is very subjective and depending on the observer. Therefore, the application of a small molecule indicator probe is much more advantageous. Thioflavin T (ThT) is such a probe and has a distinct fluorescence signature when binding to fibrils [Naiki et al; Anal. Biochem. 1989 177 244-249; LeVine; Methods. Enzymol. 1999 309 274-284].
The time course for fibril formation can be described by a sigmoidal curve with the following expression [Nielsen et al; Biochemistry 2001 40 6036-6046]:
Here, as depicted in FIG. 1, F is the ThT fluorescence at the time t. The constant t0 is the time needed to reach 50% of maximum fluorescence. The two important parameters describing fibril formation are the lag-time calculated by t0−2τ and the apparent rate constant kapp 1/τ.
Samples were prepared freshly before each assay. Each sample composition is described in the legends. The pH of the sample was adjusted to the desired value using appropriate amounts of concentrated NaOH and HCl. Thioflavin T was added to the samples from a stock solution in H2O to a final concentration of 1 μM.
Sample aliquots of 200 μl (250 μM of the glucagon derivative/analogue in 10 mM HEPES buffer, pH 7.5) were placed in a 96 well microtiter plate (Packard OptiPlate™-96, white polystyrene). Usually, four or eight replica of each sample (corresponding to one test condition) were placed in one column of wells. The plate was sealed with Scotch Pad (Qiagen).
Incubation at given temperature, shaking and measurement of the ThT fluorescence emission were done in a Fluoroskan Ascent FL fluorescence plate reader (Thermo Labsystems). The temperature was set to 37° C. and the plate was incubated with orbital shaking adjusted to 960 rpm with an amplitude of 1 mm. Fluorescence measurement was done using excitation through a 444 nm filter and measurement of emission through a 485 nm filter.
Each run was initiated by incubating the plate at the assay temperature for 10 min. The plate was measured every 20 minutes for a desired period of time. Between each measurement, the plate was shaken and heated as described.
After completion of the ThT assay the four or eight replica of each sample was pooled and centrifuged at 20000 rpm for 30 minutes at 18° C. The supernatant was filtered through a 0.22 μm filter and an aliquot was transferred to a HPLC vial.
The concentration of peptide in the initial sample and in the filtered supernatant was determined by reverse phase HPLC using an appropriate standard as reference. The percentage fraction the concentration of the filtered sample constituted of the initial sample concentration was reported as the recovery.
The measurement points were saved in Microsoft Excel format for further processing and curve drawing and fitting was performed using GraphPad Prism. The background emission from ThT in the absence of fibrils was negligible. The data points were typically a mean of four or eight samples.
The data set may be fitted to Eq. (1).

T1 sequence (P43220 24-463): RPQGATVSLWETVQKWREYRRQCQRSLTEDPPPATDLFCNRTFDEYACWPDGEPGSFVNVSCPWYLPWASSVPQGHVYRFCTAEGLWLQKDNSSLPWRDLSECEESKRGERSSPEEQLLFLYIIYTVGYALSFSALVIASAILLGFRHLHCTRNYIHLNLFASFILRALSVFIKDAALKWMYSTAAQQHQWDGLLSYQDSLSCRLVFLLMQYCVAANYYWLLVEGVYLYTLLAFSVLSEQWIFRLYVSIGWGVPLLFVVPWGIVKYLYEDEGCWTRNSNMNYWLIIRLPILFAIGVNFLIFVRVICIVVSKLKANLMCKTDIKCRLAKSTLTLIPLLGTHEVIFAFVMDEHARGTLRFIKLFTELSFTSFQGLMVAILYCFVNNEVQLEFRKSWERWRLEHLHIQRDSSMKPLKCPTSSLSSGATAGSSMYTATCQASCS

As a reminder, the EC50 is the concentration needed to bring the measured effect to its halfway point. Consider `CC(C)C[C@H](NC(=O)[C@H](Cc1ccc(O)cc1)NC(=O)[C@H](CCCCN)NC(=O)[C@H](CO)NC(=O)[C@H](CC(C)C)NC(=O)[C@H](CC(=O)O)NC(=O)[C@H](CO)NC(=O)[C@@H](NC(=O)[C@H](Cc1ccccc1)NC(=O)[C@@H](NC(=O)CNC(=O)[C@H](CCC(N)=O)NC(=O)C1(NC(=O)[C@@H](N)Cc2c[nH]cn2)CC1)[C@@H](C)O)[C@@H](C)O)C(=O)N[C@@H](CCC(=O)O)C(=O)N[C@@H](CO)C(=O)N[C@@H](CCCNC(=N)N)C(=O)N[C@@H](CCCNC(=N)N)C(=O)N[C@@H](C)C(=O)N[C@@H](CCCNC(=N)N)C(=O)N[C@@H](CCC(=O)O)C(=O)N[C@@H](Cc1ccccc1)C(=O)N[C@H](C(=O)N[C@@H](CCC(N)=O)C(=O)N[C@@H](Cc1c[nH]c2ccccc12)C(=O)N[C@@H](CC(C)C)C(=O)N[C@@H](CC(C)C)C(=O)N[C@@H](CCCCNC(=O)CC[C@H](NC(=O)CC[C@H](NC(=O)COCCOCCNC(=O)COCCOCCNC(=O)CC[C@H](NC(=O)CCCCCCCCCCCCCCCCC(=O)O)C(=O)O)C(=O)O)C(=O)O)C(=O)N[C@H](C(N)=O)[C@@H](C)O)C(C)C` [Example 50, N^ε28-[(4S)-4-carboxy-4-[[(4S)-4-carboxy-4-[[2-[2-[2-[[2-[2-[2-[[(4S)-4-carboxy-4-(17-carboxyheptadecanoylamino)butanoyl]amino]ethoxy]ethoxy]acetyl]amino]ethoxy]ethoxy]acetyl]amino]butanoyl]amino]butanoyl]-[Acpr2,Leu10,Glu15,Arg20,Glu21,Leu27,Lys28]-Glucagon amide] (H-H[Ac3c]QGTFTSDLSKYLESRRAREFVQWLLK([γGlu-γGlu-AEEA-AEEA-γGlu-C18 diacid])T-NH2; N-terminus assumed), for which the EC50 on human GLP-1 receptor was 11 pM. The same compound returned a THT assay Lag time (Ex. 76) in series [1] of 28 h.

Regarding `CC(C)C[C@H](NC(=O)[C@H](Cc1ccc(O)cc1)NC(=O)[C@H](CCCCN)NC(=O)[C@H](CO)NC(=O)[C@H](CC(C)C)NC(=O)[C@H](CC(=O)O)NC(=O)[C@H](CO)NC(=O)[C@@H](NC(=O)[C@H](Cc1ccccc1)NC(=O)[C@@H](NC(=O)CNC(=O)[C@H](CCC(N)=O)NC(=O)C(C)(C)NC(=O)[C@@H](N)Cc1c[nH]cn1)[C@@H](C)O)[C@@H](C)O)C(=O)N[C@@H](CC(=O)O)C(=O)N[C@@H](CO)C(=O)N[C@@H](CCCNC(=N)N)C(=O)N[C@@H](CCCNC(=N)N)C(=O)N[C@@H](C)C(=O)N[C@@H](CCCNC(=N)N)C(=O)N[C@@H](CCCCNC(=O)CC[C@H](NC(=O)CC[C@H](NC(=O)COCCOCCNC(=O)COCCOCCNC(=O)CC[C@H](NC(=O)CCCCCCCCCCCCCCCCC(=O)O)C(=O)O)C(=O)O)C(=O)O)C(=O)N[C@@H](Cc1ccccc1)C(=O)N[C@H](C(=O)N[C@@H](CCC(N)=O)C(=O)N[C@@H](Cc1c[nH]c2ccccc12)C(=O)N[C@@H](CC(C)C)C(=O)N[C@@H](CC(C)C)C(=O)N[C@@H](CO)C(=O)N[C@H](C(N)=O)[C@@H](C)O)C(C)C` [Example 2] (H-H[Aib]QGTFTSDLSKYLDSRRARK([γGlu-γGlu-AEEA-AEEA-γGlu-C18 diacid])FVQWLLST-NH2; N-terminus assumed), on human GLP-1 receptor, the EC50 was 44 pM.

As to `CC(C)C[C@H](NC(=O)[C@H](Cc1ccc(O)cc1)NC(=O)[C@H](CCCCN)NC(=O)[C@H](CO)NC(=O)[C@H](CC(C)C)NC(=O)[C@H](CC(=O)O)NC(=O)[C@H](CO)NC(=O)[C@@H](NC(=O)[C@H](Cc1ccccc1)NC(=O)[C@@H](NC(=O)CNC(=O)[C@H](CCC(N)=O)NC(=O)C(C)(C)NC(=O)[C@@H](N)Cc1c[nH]cn1)[C@@H](C)O)[C@@H](C)O)C(=O)N[C@@H](CC(=O)O)C(=O)N[C@@H](CO)C(=O)N[C@@H](CCCNC(=N)N)C(=O)N[C@@H](CCCNC(=N)N)C(=O)N[C@@H](C)C(=O)N[C@@H](CCCNC(=N)N)C(=O)N[C@@H](CC(=O)O)C(=O)N[C@@H](Cc1ccccc1)C(=O)N[C@H](C(=O)N[C@@H](CCC(N)=O)C(=O)N[C@@H](Cc1c[nH]c2ccccc12)C(=O)N[C@@H](CC(C)C)C(=O)N[C@@H](CC(C)C)C(=O)N[C@@H](CO)C(=O)N[C@H](C(=O)N[C@@H](CCCCNC(=O)CC[C@H](NC(=O)CC[C@H](NC(=O)COCCOCCNC(=O)COCCOCCNC(=O)CC[C@H](NC(=O)CCCCCCCCCCCCCCCCC(=O)O)C(=O)O)C(=O)O)C(=O)O)C(N)=O)[C@@H](C)O)C(C)C` [Example 6, N^α-([Aib2,Leu10,Arg20,Leu27,Ser28]-Glucagonyl)-N{Epsilon}[(4S)-4-carboxy-4-[[(4S)-4-carboxy-4-[[2-[2-[2-[[2-[2-[2-[[(4S)-4-carboxy-4-(17-carboxyheptadecanoylamino)butanoyl]amino]ethoxy]ethoxy]acetyl]amino]ethoxy]ethoxy]acetyl]amino]butanoyl]amino]butanoyl]Lys amide] (H-H[Aib]QGTFTSDLSKYLDSRRARDFVQWLLSTK([γGlu-γGlu-AEEA-AEEA-γGlu-C18 diacid])-NH2), at human GLP-1 receptor, the EC50 was 20 pM.
